Results as given in ChEMBL document CHEMBL1201862, “PubChem BioAssay data set” (2004).
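Cells were grown in 96-well plates and exposed to each compound for 48 hours at five concentrations; endpoints were interpolated linearly between bracketing concentrations, or set to the highest concentration if not reached. GI50 is the concentration that inhibits growth by half.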 Active and inactive are the calls of the source. Cut-off read from the data, not from the text of the source: active = GI50 up to about 1.1 µM and inactive = higher.

Experiments:
Assay in all cases: NCI-60 cell line screen, 48 h
SF-268 = system: SF-268
MCF7 = system: MCF7
A498 = system: A498
CAKI-1 = system: CAKI-1
Malme-3M = system: Malme-3M
CCRF-CEM = system: CCRF-CEM
UACC-62 = system: UACC-62
MOLT-4 = system: MOLT-4
M14 = system: M14
MDA-N = system: MDA-N
SNB-19 = system: SNB-19
A549 = system: A549
SW-620 = system: SW-620
OVCAR-8 = system: OVCAR-8
NCI-H23 = system: NCI-H23
OVCAR-4 = system: OVCAR-4
HT-29 = system: HT-29
T47D = system: T47D
MDA-MB-435 = system: MDA-MB-435
HCC 2998 = system: HCC 2998
NCI/ADR-RES = system: NCI/ADR-RES
SR = system: SR
NCI-H460 = system: NCI-H460
SK-OV-3 = system: SK-OV-3
LOX IMVI = system: LOX IMVI
MDA-MB-231 = system: MDA-MB-231
HL-60 = system: HL-60
SK-MEL-5 = system: SK-MEL-5
K562 = system: K562
RXF 393 = system: RXF 393
COLO 205 = system: COLO 205
DU-145 = system: DU-145
NCI-H226 = system: NCI-H226
BT-549 = system: BT-549
RPMI-8226 = system: RPMI-8226
SF-295 = system: SF-295
TK-10 = system: TK-10
HOP-92 = system: HOP-92
UACC-257 = system: UACC-257
SK-MEL-2 = system: SK-MEL-2
OVCAR-5 = system: OVCAR-5
ACHN = system: ACHN
U-251 = system: U-251
SK-MEL-28 = system: SK-MEL-28
HCT-15 = system: HCT-15
PC-3 = system: PC-3
SNB-75 = system: SNB-75
Hs-578T = system: Hs-578T
HCT-116 = system: HCT-116
786-0 = system: 786-0
OVCAR-3 = system: OVCAR-3
IGROV-1 = system: IGROV-1
KM12 = system: KM12
EKVX = system: EKVX
SF-539 = system: SF-539
UO-31 = system: UO-31
SN12C = system: SN12C
NCI-H522 = system: NCI-H522
HOP-62 = system: HOP-62

Measured: GI50

COc1cc2c(cc1OC)C1=CCC(c3ccccc3)[N+]1(C)CC2 (centres undefined)
inactive: SF-268 > 100 µM | MCF7 > 100 µM | A498 > 100 µM | CAKI-1 > 100 µM | Malme-3M 56.9 µM | CCRF-CEM > 100 µM | UACC-62 > 100 µM | MOLT-4 > 100 µM | M14 > 100 µM | MDA-N > 100 µM | SNB-19 > 100 µM | A549 > 100 µM | SW-620 > 100 µM | OVCAR-8 > 100 µM | NCI-H23 > 100 µM | OVCAR-4 > 100 µM | HT-29 > 100 µM | T47D > 100 µM | MDA-MB-435 > 100 µM | HCC 2998 > 100 µM | NCI/ADR-RES > 100 µM | SR > 100 µM | NCI-H460 > 100 µM | SK-OV-3 > 100 µM | LOX IMVI > 100 µM | MDA-MB-231 > 100 µM | HL-60 > 100 µM | SK-MEL-5 78.5 µM | K562 > 100 µM | RXF 393 > 100 µM | COLO 205 > 100 µM | DU-145 > 100 µM | NCI-H226 > 100 µM | BT-549 > 100 µM | RPMI-8226 > 100 µM | SF-295 > 100 µM | TK-10 > 100 µM | HOP-92 > 100 µM | UACC-257 33.5 µM | SK-MEL-2 > 100 µM | OVCAR-5 > 100 µM | ACHN > 100 µM | U-251 > 100 µM | SK-MEL-28 > 100 µM | PC-3 > 100 µM | SNB-75 > 100 µM | Hs-578T > 100 µM | HCT-116 > 100 µM | 786-0 > 100 µM | OVCAR-3 > 100 µM | IGROV-1 > 100 µM | KM12 > 100 µM | EKVX > 100 µM | SF-539 > 100 µM | UO-31 > 100 µM
> 100 µM: HCT-15

COC(=O)[C@]12CC[C@H]3CN(S(=O)(=O)c4ccc(C)cc4)[C@H]([C@H]31)[C@H](c1ccco1)N2S(=O)(=O)c1ccc(C)cc1
inactive: SF-268 42.3 µM | MCF7 32.2 µM | A498 53.2 µM | CAKI-1 38.1 µM | Malme-3M 23.8 µM | CCRF-CEM 45.3 µM | UACC-62 19.4 µM | MOLT-4 31.1 µM | M14 26.8 µM | MDA-N 24.7 µM | SNB-19 > 100 µM | A549 31.2 µM | SW-620 70.1 µM | OVCAR-8 27.8 µM | NCI-H23 48.1 µM | OVCAR-4 27.7 µM | HT-29 38.8 µM | T47D 14.1 µM | SN12C 37.6 µM | MDA-MB-435 22.9 µM | HCC 2998 78.2 µM | NCI/ADR-RES 29 µM | SR 38.7 µM | NCI-H460 35.8 µM | SK-OV-3 > 100 µM | LOX IMVI 34.7 µM | NCI-H522 29.9 µM | MDA-MB-231 55.8 µM | HL-60 30.2 µM | SK-MEL-5 37.2 µM | K562 30.2 µM | RXF 393 16.8 µM | COLO 205 20.5 µM | HOP-62 66.4 µM | DU-145 40.6 µM | NCI-H226 42.5 µM | BT-549 30.1 µM | RPMI-8226 20 µM | SF-295 35.6 µM | TK-10 56.5 µM | HOP-92 10.1 µM | UACC-257 28.6 µM | SK-MEL-2 29.2 µM | OVCAR-5 > 100 µM | ACHN 39.7 µM | U-251 64.3 µM | SK-MEL-28 51.4 µM | PC-3 28.8 µM | Hs-578T > 100 µM | HCT-116 27.2 µM | 786-0 59.7 µM | OVCAR-3 56.2 µM | IGROV-1 35.8 µM | KM12 32.9 µM | EKVX 51.1 µM | SF-539 > 100 µM | UO-31 29.3 µM
34 µM: HCT-15
